This note sets out measurements from ChEMBL document CHEMBL5223117, “Synthesis and biological evaluation of novel N, N'-diarylurea derivatives as potent antibacterial agents against MRSA” (Bioorg Med Chem Lett, 2022).

≈ marks a conversion by molar mass, not a printed value. Calls of active or inactive are those of the source. The rule behind the calls is not given here.

The first assay concerns Staphylococcus aureus. Put plainly: Antibacterial activity against methicillin resistant Staphylococcus aureus 18-2. The format is functional.
With `CN(C(=O)Nc1cccc(Cl)c1F)c1ccc(Cl)c(C(F)(F)F)c1`, the MIC result is “inactive”.

The next assay deals with Staphylococcus epidermidis. Put plainly: Antibacterial activity against methicillin resistant Staphylococcus epidermidis 19-2. Format: functional.
In the case of `O=C1N(c2ccc(O)cc2)CCN1c1ccc(Cl)c(C(F)(F)F)c1`, the MIC result is “inactive”.
Take `CNC(=O)c1cc(Oc2ccc(N3CCN(c4ccc(Cl)c(C(F)(F)F)c4)C3=O)cc2)ccn1`: the MIC entry was “inactive”.
Molecule `O=C(Nc1ccc2c(c1)OCO2)Nc1ccc(Cl)c(C(F)(F)F)c1` yielded a minimum inhibitory concentration (MIC) of 22.3 µM (≈ 8 µg/mL).
Regarding `CNC(=O)c1cc(Oc2ccc(NC(=O)Nc3cc(C(F)(F)F)ccc3Cl)cc2)ccn1`, the MIC entry was “inactive”.
For `COc1ccc(NC(=O)Nc2ccc(Cl)c(C(F)(F)F)c2)cc1`, the MIC entry is “inactive”.
Same read-out and setting: then `CNC(=O)c1cc(Oc2ccc(NC(=O)Nc3cccc(C(F)(F)F)c3)cc2)ccn1`, with “inactive”; and `CNC(=O)c1cc(Oc2ccc(NC(=O)Nc3cc(C(F)(F)F)ccc3OC)cc2)ccn1`, with “inactive”; and `CN(C(=O)Nc1cccc(Cl)c1F)c1ccc(Cl)c(C(F)(F)F)c1`, with “inactive”.

For a further assay, the system named is Staphylococcus aureus. The experiment in a line: Antibacterial activity against methicillin sensitive Staphylococcus aureus 15. The format is functional.
Regarding `O=C1N(c2ccc(O)cc2)CCN1c1ccc(Cl)c(C(F)(F)F)c1`, the MIC result is “inactive”.
Same read-out and setting: the result for `CNC(=O)c1cc(Oc2ccc(N3CCN(c4ccc(Cl)c(C(F)(F)F)c4)C3=O)cc2)ccn1` reads “inactive”.
As for `O=C(Nc1ccc2c(c1)OCO2)Nc1ccc(Cl)c(C(F)(F)F)c1`, the MIC was 22.3 µM (≈ 8 µg/mL).
For the molecule `CNC(=O)c1cc(Oc2ccc(NC(=O)Nc3cc(C(F)(F)F)ccc3Cl)cc2)ccn1`, the MIC entry is “inactive”.
As to `COc1ccc(NC(=O)Nc2ccc(Cl)c(C(F)(F)F)c2)cc1`, the MIC entry is “inactive”.
On the same count and under the same terms, the result for `CNC(=O)c1cc(Oc2ccc(NC(=O)Nc3cccc(C(F)(F)F)c3)cc2)ccn1` reads 149 µM (≈ 64 µg/mL).
Take `CNC(=O)c1cc(Oc2ccc(NC(=O)Nc3cc(C(F)(F)F)ccc3OC)cc2)ccn1`: the MIC entry is “inactive”.
As for `CN(C(=O)Nc1cccc(Cl)c1F)c1ccc(Cl)c(C(F)(F)F)c1`, the MIC result is “inactive”.

A further assay has as its system Staphylococcus epidermidis. Put plainly: Antibacterial activity against methicillin resistant Staphylococcus epidermidis 19-1. The format is functional.
As to `O=C1N(c2ccc(O)cc2)CCN1c1ccc(Cl)c(C(F)(F)F)c1`, the MIC result is “inactive”.
Consider `CNC(=O)c1cc(Oc2ccc(N3CCN(c4ccc(Cl)c(C(F)(F)F)c4)C3=O)cc2)ccn1`, for which the MIC entry is “inactive”.
For `O=C(Nc1ccc2c(c1)OCO2)Nc1ccc(Cl)c(C(F)(F)F)c1`, the minimal inhibitory concentration (MIC) came to 22.3 µM (≈ 8 µg/mL).
`CNC(=O)c1cc(Oc2ccc(NC(=O)Nc3cc(C(F)(F)F)ccc3Cl)cc2)ccn1`: the MIC result is “inactive”.
Turning to `COc1ccc(NC(=O)Nc2ccc(Cl)c(C(F)(F)F)c2)cc1`, the MIC entry was “inactive”.
Still for that read-out and setting: then `CNC(=O)c1cc(Oc2ccc(NC(=O)Nc3cccc(C(F)(F)F)c3)cc2)ccn1`, with 149 µM (≈ 64 µg/mL).
For the molecule `CNC(=O)c1cc(Oc2ccc(NC(=O)Nc3cc(C(F)(F)F)ccc3OC)cc2)ccn1`, the MIC result was “inactive”.
On to `CN(C(=O)Nc1cccc(Cl)c1F)c1ccc(Cl)c(C(F)(F)F)c1`, for which the MIC entry was “inactive”.

The next assay relates to Staphylococcus aureus. Put plainly: Antibacterial activity against vancomycin intermediate and methicillin resistant Staphylococcus aureus ATCC 700699. Format: functional.
Take `O=C1N(c2ccc(O)cc2)CCN1c1ccc(Cl)c(C(F)(F)F)c1`: the MIC entry was “inactive”.
The same measure, in the same setting: the result for `CNC(=O)c1cc(Oc2ccc(N3CCN(c4ccc(Cl)c(C(F)(F)F)c4)C3=O)cc2)ccn1` reads “inactive”; that for `O=C(Nc1ccc2c(c1)OCO2)Nc1ccc(Cl)c(C(F)(F)F)c1`, 22.3 µM (≈ 8 µg/mL).
Consider `CNC(=O)c1cc(Oc2ccc(NC(=O)Nc3cc(C(F)(F)F)ccc3Cl)cc2)ccn1`, for which the MIC entry is “inactive”.
As for `COc1ccc(NC(=O)Nc2ccc(Cl)c(C(F)(F)F)c2)cc1`, the MIC entry is “inactive”.
For `CNC(=O)c1cc(Oc2ccc(NC(=O)Nc3cccc(C(F)(F)F)c3)cc2)ccn1`, the MIC result was “inactive”.
On to `CNC(=O)c1cc(Oc2ccc(NC(=O)Nc3cc(C(F)(F)F)ccc3OC)cc2)ccn1`, for which the MIC entry is “inactive”.
As for `CN(C(=O)Nc1cccc(Cl)c1F)c1ccc(Cl)c(C(F)(F)F)c1`, the MIC entry is “inactive”.

Another assay has as its system Staphylococcus epidermidis. The experiment in a line: Antibacterial activity against methicillin sensitive Staphylococcus epidermidis 17-13. Format: functional.
In the case of `O=C1N(c2ccc(O)cc2)CCN1c1ccc(Cl)c(C(F)(F)F)c1`, the MIC result was “inactive”.
Regarding `CNC(=O)c1cc(Oc2ccc(N3CCN(c4ccc(Cl)c(C(F)(F)F)c4)C3=O)cc2)ccn1`, the MIC result was “inactive”.
Molecule `O=C(Nc1ccc2c(c1)OCO2)Nc1ccc(Cl)c(C(F)(F)F)c1` displayed an MIC of 22.3 µM (≈ 8 µg/mL).
The same measure, in the same setting: then `CNC(=O)c1cc(Oc2ccc(NC(=O)Nc3cc(C(F)(F)F)ccc3Cl)cc2)ccn1`, with “inactive”.
`COc1ccc(NC(=O)Nc2ccc(Cl)c(C(F)(F)F)c2)cc1`: the MIC entry was “inactive”.
As for `CNC(=O)c1cc(Oc2ccc(NC(=O)Nc3cccc(C(F)(F)F)c3)cc2)ccn1`, the MIC result is “inactive”.
In the case of `CNC(=O)c1cc(Oc2ccc(NC(=O)Nc3cc(C(F)(F)F)ccc3OC)cc2)ccn1`, the MIC entry was “inactive”.
Take `CN(C(=O)Nc1cccc(Cl)c1F)c1ccc(Cl)c(C(F)(F)F)c1`: the MIC entry was “inactive”.

In the next assay the test system is Staphylococcus aureus. Put plainly: Antibacterial activity against methicillin sensitive Staphylococcus aureus ATCC 29213. The format is functional.
Consider `O=C1N(c2ccc(O)cc2)CCN1c1ccc(Cl)c(C(F)(F)F)c1`, for which the MIC entry is “inactive”.
On the same count and under the same terms, then `CNC(=O)c1cc(Oc2ccc(N3CCN(c4ccc(Cl)c(C(F)(F)F)c4)C3=O)cc2)ccn1`, with “inactive”.
Take `O=C(Nc1ccc2c(c1)OCO2)Nc1ccc(Cl)c(C(F)(F)F)c1`: inhibition of growth (MIC) required 44.6 µM (≈ 16 µg/mL).
Take `CNC(=O)c1cc(Oc2ccc(NC(=O)Nc3cc(C(F)(F)F)ccc3Cl)cc2)ccn1`: the MIC result is “inactive”.
As for `COc1ccc(NC(=O)Nc2ccc(Cl)c(C(F)(F)F)c2)cc1`, the MIC result is “inactive”.
`CNC(=O)c1cc(Oc2ccc(NC(=O)Nc3cccc(C(F)(F)F)c3)cc2)ccn1`: the MIC entry was “inactive”.
Still for that read-out and setting: the result for `CNC(=O)c1cc(Oc2ccc(NC(=O)Nc3cc(C(F)(F)F)ccc3OC)cc2)ccn1` reads “inactive”; that for `CN(C(=O)Nc1cccc(Cl)c1F)c1ccc(Cl)c(C(F)(F)F)c1`, “inactive”.

The test system of another assay is Staphylococcus aureus. The experiment in a line: Antibacterial activity against methicillin resistant Staphylococcus aureus 20-11. Format: functional.
In the case of `O=C1N(c2ccc(O)cc2)CCN1c1ccc(Cl)c(C(F)(F)F)c1`, the MIC entry was “inactive”.
In the case of `CNC(=O)c1cc(Oc2ccc(N3CCN(c4ccc(Cl)c(C(F)(F)F)c4)C3=O)cc2)ccn1`, the MIC result was “inactive”.
The molecule `O=C(Nc1ccc2c(c1)OCO2)Nc1ccc(Cl)c(C(F)(F)F)c1` displayed a minimal inhibitory concentration (MIC) of 44.6 µM (≈ 16 µg/mL).
Take `CNC(=O)c1cc(Oc2ccc(NC(=O)Nc3cc(C(F)(F)F)ccc3Cl)cc2)ccn1`: the MIC entry was “inactive”.
Consider `COc1ccc(NC(=O)Nc2ccc(Cl)c(C(F)(F)F)c2)cc1`, for which the MIC result was “inactive”.
For the molecule `CNC(=O)c1cc(Oc2ccc(NC(=O)Nc3cccc(C(F)(F)F)c3)cc2)ccn1`, the MIC entry was “inactive”.
In the case of `CNC(=O)c1cc(Oc2ccc(NC(=O)Nc3cc(C(F)(F)F)ccc3OC)cc2)ccn1`, the MIC entry was “inactive”.
`CN(C(=O)Nc1cccc(Cl)c1F)c1ccc(Cl)c(C(F)(F)F)c1`: the MIC entry was “inactive”.

Another assay deals with Staphylococcus epidermidis. Put plainly: Antibacterial activity against methicillin sensitive Staphylococcus epidermidis ATCC 12228. Format: functional.
As for `O=C1N(c2ccc(O)cc2)CCN1c1ccc(Cl)c(C(F)(F)F)c1`, the MIC entry was “inactive”.
Same read-out and setting: then `CNC(=O)c1cc(Oc2ccc(N3CCN(c4ccc(Cl)c(C(F)(F)F)c4)C3=O)cc2)ccn1`, with “inactive”; and `O=C(Nc1ccc2c(c1)OCO2)Nc1ccc(Cl)c(C(F)(F)F)c1`, with 22.3 µM (≈ 8 µg/mL); and `CNC(=O)c1cc(Oc2ccc(NC(=O)Nc3cc(C(F)(F)F)ccc3Cl)cc2)ccn1`, with “inactive”.
For `COc1ccc(NC(=O)Nc2ccc(Cl)c(C(F)(F)F)c2)cc1`, the MIC result is “inactive”.
As to `CNC(=O)c1cc(Oc2ccc(NC(=O)Nc3cccc(C(F)(F)F)c3)cc2)ccn1`, the minimum inhibitory concentration (MIC) stood at 149 µM (≈ 64 µg/mL).
As to `CNC(=O)c1cc(Oc2ccc(NC(=O)Nc3cc(C(F)(F)F)ccc3OC)cc2)ccn1`, the MIC entry is “inactive”.
For `CN(C(=O)Nc1cccc(Cl)c1F)c1ccc(Cl)c(C(F)(F)F)c1`, the MIC entry was “inactive”.

Another assay relates to Staphylococcus aureus. Put plainly: Antibacterial activity against methicillin sensitive Staphylococcus aureus ATCC 33591. The format is functional.
For the molecule `CN(C(=O)Nc1cccc(Cl)c1F)c1ccc(Cl)c(C(F)(F)F)c1`, the MIC entry was “inactive”.

A further assay concerns Staphylococcus aureus. The experiment in a line: Antibacterial activity against vancomycin intermediate and methicillin resistant Staphylococcus aureus ATCC 700698. Format: functional.
`O=C1N(c2ccc(O)cc2)CCN1c1ccc(Cl)c(C(F)(F)F)c1`: the MIC result was “inactive”.
Same read-out and setting: then `CNC(=O)c1cc(Oc2ccc(N3CCN(c4ccc(Cl)c(C(F)(F)F)c4)C3=O)cc2)ccn1`, with “inactive”; and `O=C(Nc1ccc2c(c1)OCO2)Nc1ccc(Cl)c(C(F)(F)F)c1`, with 44.6 µM (≈ 16 µg/mL); and `CNC(=O)c1cc(Oc2ccc(NC(=O)Nc3cc(C(F)(F)F)ccc3Cl)cc2)ccn1`, with “inactive”.
In the case of `COc1ccc(NC(=O)Nc2ccc(Cl)c(C(F)(F)F)c2)cc1`, the MIC entry was “inactive”.
With `CNC(=O)c1cc(Oc2ccc(NC(=O)Nc3cccc(C(F)(F)F)c3)cc2)ccn1`, the MIC entry was “inactive”.
For the molecule `CNC(=O)c1cc(Oc2ccc(NC(=O)Nc3cc(C(F)(F)F)ccc3OC)cc2)ccn1`, the MIC result was “inactive”.
`CN(C(=O)Nc1cccc(Cl)c1F)c1ccc(Cl)c(C(F)(F)F)c1`: the MIC result is “inactive”.

The next assay concerns Staphylococcus aureus. Put plainly: Antibacterial activity against methicillin sensitive Staphylococcus aureus 20-12. Format: functional.
For the molecule `CN(C(=O)Nc1cccc(Cl)c1F)c1ccc(Cl)c(C(F)(F)F)c1`, the MIC entry is “inactive”.

In another assay the test system is Staphylococcus aureus. The experiment in a line: Antibacterial activity against methicillin resistant Staphylococcus aureus ATCC 43300. Format: functional.
Turning to `O=C1N(c2ccc(O)cc2)CCN1c1ccc(Cl)c(C(F)(F)F)c1`, the MIC entry was “inactive”.
Regarding `CNC(=O)c1cc(Oc2ccc(N3CCN(c4ccc(Cl)c(C(F)(F)F)c4)C3=O)cc2)ccn1`, the MIC entry was “inactive”.
Turning to `O=C(Nc1ccc2c(c1)OCO2)Nc1ccc(Cl)c(C(F)(F)F)c1`, inhibition of growth (MIC) required 357 µM (≈ 128 µg/mL).
Turning to `CNC(=O)c1cc(Oc2ccc(NC(=O)Nc3cc(C(F)(F)F)ccc3Cl)cc2)ccn1`, the MIC entry is “inactive”.
Same read-out and setting: the result for `COc1ccc(NC(=O)Nc2ccc(Cl)c(C(F)(F)F)c2)cc1` reads “inactive”; that for `CNC(=O)c1cc(Oc2ccc(NC(=O)Nc3cccc(C(F)(F)F)c3)cc2)ccn1`, “inactive”; that for `CNC(=O)c1cc(Oc2ccc(NC(=O)Nc3cc(C(F)(F)F)ccc3OC)cc2)ccn1`, “inactive”.
Still for that read-out and setting: then `CN(C(=O)Nc1cccc(Cl)c1F)c1ccc(Cl)c(C(F)(F)F)c1`, with “inactive”.
